Experimental data as given in the supplement of paper PMC5908809.

Key:
[1] = tested on: SNK-6 (IL-2 2.5 ng/mL); assay: drug sensitivity score (DSS) (DSS units); higher = more sensitive; extreme values may be limits of the assay; conditions: 72 h
[2] = tested on: NKL (IL-2 2.5 ng/mL); assay: as above; conditions: 72 h
[3] = tested on: IMC-1 (IL-2 20 ng/mL); assay: as above; conditions: 72 h
[4] = tested on: normal primary NK cells, pool 2 (3 donors) (IL-2 2.5 ng/mL); assay: as above; conditions: 72 h
[5] = tested on: KHYG-1 (IL-2 2.5 ng/mL); assay: as above; conditions: 72 h
[6] = tested on: DERL-7 (IL-2 2.5 ng/mL); assay: as above; conditions: 72 h
[7] = tested on: normal primary NK cells, pool 1 (3 donors), resting (IL-2 0 ng/mL); assay: as above; conditions: 72 h
[8] = tested on: normal primary NK cells, pool 3 (3 donors) (IL-2 2.5 ng/mL); assay: as above; conditions: 72 h
[9] = tested on: normal primary NK cells, pool 1 (3 donors) (IL-2 2.5 ng/mL); assay: as above; conditions: 72 h
[10] = tested on: NK-92 (IL-2 2.5 ng/mL); assay: as above; conditions: 72 h
[11] = tested on: KAI3 (IL-2 2.5 ng/mL); assay: as above; conditions: 72 h
[12] = tested on: YT (IL-2 2.5 ng/mL); assay: as above; conditions: 72 h
[13] = tested on: NK-YS (IL-2 2.5 ng/mL); assay: as above; conditions: 72 h
[14] = tested on: normal NK cells expanded with K562-aAPC; assay: as above; conditions: 72 h; IL-2 2.5 ng/mL
Experimental: (§1)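 Drug sensitivity and resistance testing on K562-aAPC-expanded normal NK cells: 5 concentrations (10-fold steps over a 10,000-fold range), 72 h at 37 °C, viability by CellTiter-Glo normalised to DMSO and benzethonium chloride controls; DSS from the fitted curve.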

[15] = tested on: SNK-6 (IL-2 2.5 ng/mL); assay: percent inhibition of viability; higher = more inhibition; conditions: 72 h
[16] = tested on: NKL (IL-2 2.5 ng/mL); assay: as above; conditions: 72 h
[17] = tested on: IMC-1 (IL-2 20 ng/mL); assay: as above; conditions: 72 h
[18] = tested on: normal primary NK cells, pool 2 (3 donors) (IL-2 2.5 ng/mL); assay: as above; conditions: 72 h
[19] = tested on: KHYG-1 (IL-2 2.5 ng/mL); assay: as above; conditions: 72 h
[20] = tested on: DERL-7 (IL-2 2.5 ng/mL); assay: as above; conditions: 72 h
[21] = tested on: normal primary NK cells, pool 1 (3 donors), resting (IL-2 0 ng/mL); assay: as above; conditions: 72 h
[22] = tested on: normal primary NK cells, pool 3 (3 donors) (IL-2 2.5 ng/mL); assay: as above; conditions: 72 h
[23] = tested on: normal primary NK cells, pool 1 (3 donors) (IL-2 2.5 ng/mL); assay: as above; conditions: 72 h
[24] = tested on: NK-92 (IL-2 2.5 ng/mL); assay: as above; conditions: 72 h
[25] = tested on: KAI3 (IL-2 2.5 ng/mL); assay: as above; conditions: 72 h
[26] = tested on: YT (IL-2 2.5 ng/mL); assay: as above; conditions: 72 h
[27] = tested on: NK-YS (IL-2 2.5 ng/mL); assay: as above; conditions: 72 h
[28] = tested on: normal NK cells expanded with K562-aAPC; assay: as above; conditions: 72 h, IL-2 2.5 ng/mL
Experimental: as §1

NC(=O)Nc1sc(-c2ccc(F)cc2)cc1C(N)=O [TPCA-1] (max concentration tested 25000 nM)
Conditions	drug sensitivity score
[1]	18.2
[2]	20
[3]	6.04
[4]	15.8
[5]	21.9
[6]	21.5
[7]	9.72
[8]	14.5
[9]	15.2
[10]	15.9
[11]	23
[12]	16.3
[13]	13.2
[14]	18.4

percent inhibition of viability [%]
Conditions	2.5 nM	25 nM	250 nM	2500 nM	25000 nM
[15]	-12.6	-19.3	33.2	75.8	93.2
[16]	-2.04	-2.79	45.8	72.9	87.4
[17]	-2.64	-8.76	-6.99	3.86	99.3
[18]	-8.08	-4.41	24.2	69.5	87.1
[19]	-2.05	-6.88	25.8	101	97.8
[20]	0.71	4.69	36.8	94	100
[21]	-1.07	1.15	3.48	43.5	82.3
[22]	-6.13	-4.52	15.6	67.3	91.3
[23]	-12.8	-10.6	13.2	73.4	94.3
[24]	-11.2	-10.8	8.78	80.4	91.7
[25]	-6.8	-3.3	53.5	89.1	91.4
[26]	-3.91	-4.44	13.1	79.6	97.9
[27]	-6.85	-4.02	17	58	94.8
[28]	-0.68	-4.88	18.2	88.4	98.1

CN(C[C@@H]1COCCO1)S(=O)(=O)Nc1ccc2ccc3ncc(-c4cnn(C)c4)cc3c(=O)c2c1 [MK-2461] (max concentration tested 10000 nM)
Conditions	drug sensitivity score
[1]	0.21
[2]	2.56
[3]	0
[4]	0.24
[5]	3.41
[6]	4.49
[7]	0.54
[8]	0
[9]	0.46
[10]	0
[11]	4.68
[12]	0
[13]	2.18
[14]	1.13

percent inhibition of viability [%]
Conditions	1 nM	10 nM	100 nM	1000 nM	10000 nM
[15]	0.33	-7.16	-3.05	-24.8	19.4
[16]	-3.44	-1.59	-12	8.79	30
[17]	1.71	-0.63	3.27	-5.3	-50.1
[18]	-7.85	-3.63	-2.59	-2.71	16.6
[19]	-0.18	-3.51	-0.87	6.75	44.4
[20]	-6.68	-3.14	-6.19	10.2	52.8
[21]	-17.8	-18.1	-32.3	-29.1	26.9
[22]	-12.9	-6.11	-6.1	-12.5	-1.21
[23]	-3.44	-9.95	-8.02	-7.44	21.8
[24]	1.01	-5.16	-10.7	7.81	9.19
[25]	-1.76	-2.96	7.38	21.6	44.7
[26]	-0.04	-0.58	-1.61	0.19	10.3
[27]	0.46	-3.34	-0.08	3.95	33.3
[28]	2.16	-3.15	-5.97	-1.83	29.5

Oc1c2ccccc2c2c3c(cccc13)N=N2 (max concentration tested 100000 nM)
Conditions	drug sensitivity score
[1]	7.17
[2]	10.3
[3]	0.95
[4]	5.61
[5]	9.5
[6]	12.8
[7]	0
[8]	3.2
[9]	5.75
[10]	10.2
[11]	8.9
[12]	4.53
[13]	6.25
[14]	4.7

percent inhibition of viability [%]
Conditions	10 nM	100 nM	1000 nM	10000 nM	100000 nM
[15]	-6.71	-15.7	-11.4	25.4	66.8
[16]	-5.72	1.11	17.1	43.4	71.7
[17]	-9.76	-5.66	-7.38	9.45	15.4
[18]	-8.33	-0.93	6.2	28.3	40.2
[19]	-9.58	-4.25	-1.77	41.2	79.2
[20]	0.02	10.7	21.6	53.3	72.7
[21]	10.6	13.4	3.37	16	14.5
[22]	-1.96	3	10.6	5.71	43.7
[23]	1.28	6.88	11.3	22.6	57.5
[24]	5.13	5.87	15.3	43.2	71.4
[25]	-1.06	-0.37	-1.44	36	77.2
[26]	-6.35	-2.65	-2.78	17.4	42.7
[27]	-9.38	-3.05	-7.51	20.3	61
[28]	-5.86	-5.73	-0.03	16.2	46.2
